In the assay the target is M2TMS31N (Influenza A virus, UniProt P0DOF5, S31N). The assay is classed as binding, influenza A (A/Udorn/307/72, S31N mutant). The conditions noted are these: for binding to M2TMS31N according to ITC (in words): pH 8.

This is an account of results in publication PMC9308172 (Journal of medicinal chemistry, 2017).

`CCCC1(N)C2CC3CC(C2)CC1C3` (centres unmarked) [Compound 5]: the “binding to M2TMS31N according to ITC (in words)” value is “bind weakly”.
For the molecule `C1CNC2(C1)C1CC3CC(C1)CC2C3` (centres unmarked) [Compound 6], the ΔG was -6.68 ± 0.296 kcal/mol and the “binding to M2TMS31N according to ITC (in words)” value is “bind weakly”.
Regarding `NC1(C23CC4CC(CC(C4)C2)C3)CCCC1` [Compound 9], the ΔG is -6.745 ± 0.229 kcal/mol.
Still for that read-out and setting: under `NC1(C23CC4CC(CC(C4)C2)C3)CCCCC1` [Compound 10, 1-(1-Adamantyl)cyclohexanamine] stands -7.029 ± 0.308 kcal/mol.
